From patent US20020025312A1, “BIFUNCTIONAL WATER-SOLUBLE POLYMER DERIVATIVE AND COMPLEX CONTAINING IT” (priority 1997, published 2002)

Conditions: 2 mg/kg as adriamycin, tail vein, male BALB/c mouse
Description: To compare retention in blood of the respective liposomes, 2 mg/kg as the amount of adriamycin was administered from the tale vein to a male BALB/c mouse. After each period of time, the mouse was killed, and the plasma was collected. The amount of adriamycin was quantitatively analyzed by measuring fluorescence after extraction with hydrochloric acid/ethanol in accordance with a method of Konno et al. (Cancer Res. 47 4471 (1987)).
Accordingly, the amount of detected adriamycin is considered to reflect the behavior as the relevant liposome.

COc1cccc2c1C(=O)c1c(O)c3c(c(O)c1C2=O)C[C@@](O)(C(=O)CO)C[C@@H]3O[C@H]1C[C@H](N)[C@H](O)[C@H](C)O1 [free adriamycin, adriamycin]
retention in blood (concentration of adriamycin in blood plasma): disappeared from blood swiftly after the administration
